Activity calls are given as the source filed them. No rule for the calls is given here.
Each compound was assayed against Alkaline phosphatase, tissue-nonspecific isozyme (Homo sapiens) (UniProt P05186) (assay: human TNAP enzyme inhibitors, SAR follow-up, selectivity assay for mouse IAP inhibitor project, biochemical (AID 493148)). Conditions: purified enzyme, CDP-Star luminescence, 30 min.
Sequence of Alkaline phosphatase, tissue-nonspecific isozyme (Homo sapiens) (P05186 whole entry, looked up): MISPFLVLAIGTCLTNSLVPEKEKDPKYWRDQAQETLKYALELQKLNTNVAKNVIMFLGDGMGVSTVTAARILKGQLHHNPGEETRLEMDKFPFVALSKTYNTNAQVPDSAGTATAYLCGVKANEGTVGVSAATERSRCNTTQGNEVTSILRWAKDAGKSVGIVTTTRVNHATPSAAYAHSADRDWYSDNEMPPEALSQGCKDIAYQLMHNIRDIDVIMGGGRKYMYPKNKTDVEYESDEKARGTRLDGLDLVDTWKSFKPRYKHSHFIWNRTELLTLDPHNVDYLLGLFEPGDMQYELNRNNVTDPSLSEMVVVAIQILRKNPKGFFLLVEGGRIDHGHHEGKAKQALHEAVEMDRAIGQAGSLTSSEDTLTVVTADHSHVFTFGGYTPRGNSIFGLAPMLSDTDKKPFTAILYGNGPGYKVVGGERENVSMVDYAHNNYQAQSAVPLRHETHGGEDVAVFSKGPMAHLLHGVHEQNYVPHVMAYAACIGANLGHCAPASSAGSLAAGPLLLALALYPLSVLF
For `CC(C)n1cc(CN2CCC(C(=O)Nc3cccc(-c4cccc(Cl)c4)c3)CC2)cn1`, the IC50 was > 100 µM (inactive). With `CC(C)n1cc(CN2CCC(C(=O)Nc3cccc(-c4cccc(F)c4)c3)CC2)cn1` the IC50 was > 100 µM (inactive). For `Cc1ccc(NC(=S)NCCC(c2ccccc2)c2ccccc2)cc1C`, the IC50 was > 100 µM (inactive). `CCc1ccccc1Nc1nc(-c2ccc(O)c(O)c2)cs1` showed an IC50 of 11.4 µM. `CCn1cc(CN2CCC(C(=O)Nc3cccc(-c4cccc(F)c4)c3)CC2)cn1` was tested, and the IC50 was > 100 µM (inactive). In the case of `O=C(CN1C(=O)/C(=C\c2ccco2)SC1=S)Nc1ccccc1C(=O)O`, the IC50 is reported as > 100 µM (inactive). `Cc1ccc(NC(=S)NCCC(c2ccccc2)c2ccccc2)cc1` was tested, and the IC50 was > 100 µM (inactive). With `CCN1CCN(S(=O)(=O)c2ccc3[nH]c(=O)oc3c2)CC1` the IC50 was > 100 µM (inactive). With `CC(C)c1ccccc1NC(=S)NCCC(c1ccccc1)c1ccccc1` the IC50 was > 100 µM (inactive). With `CC(C)N1CCC(=NNC(=O)c2cc(O)c(O)c(O)c2)CC1` the IC50 was > 100 µM (inactive). `O=C(CN1C(=O)/C(=C/c2ccco2)SC1=S)Nc1ccc(C(=O)O)cc1` was tested, and the IC50 was > 100 µM (inactive). In the case of `COc1cccc(NC(=S)NCCC(c2ccccc2)c2ccccc2)c1`, the IC50 is reported as > 100 µM (inactive). With `Cc1cc(=O)oc2cc(NC(=S)NCCC(c3ccccc3)c3ccccc3)ccc12` the IC50 was > 100 µM (inactive). With `CN1CCC(=NNC(=O)c2cc(O)c(O)c(O)c2)CC1` the IC50 was > 100 µM (inactive). `Oc1ccc(-c2csc(Nc3cccc4ccccc34)n2)cc1O` gave an IC50 of 6.4 µM. For `S=C(NCCC(c1ccccc1)c1ccccc1)Nc1ccccc1`, the IC50 was > 100 µM (inactive). For `O=S(=O)(Nc1ncccn1)c1ccc(NC(=S)NCCC(c2ccccc2)c2ccccc2)cc1`, the IC50 was > 100 µM (inactive). For `S=C(NCCC(c1ccccc1)c1ccccc1)Nc1ccc(Cl)cc1`, the IC50 was > 100 µM (inactive). `CCn1nc(C)c(CN2CCC(C(=O)Nc3cccc(-c4cccc(Cl)c4)c3)CC2)c1C` was tested, and the IC50 was > 100 µM (inactive). In the case of `S=C(NCCC(c1ccccc1)c1ccccc1)Nc1ccc(Cl)cc1Cl`, the IC50 is reported as > 100 µM (inactive). With `COc1cccc(-c2cccc(NC(=O)C3CCN(Cc4ccc(C)o4)CC3)c2)c1` the IC50 was > 100 µM (inactive). With `Cn1cc(CN2CCC(C(=O)Nc3cccc(-c4cccc(Cl)c4)c3)CC2)cn1` the IC50 was > 100 µM (inactive). For `NS(=O)(=O)c1ccc(NC(=S)NCCC(c2ccccc2)c2ccccc2)cc1`, the IC50 was > 100 µM (inactive). In the case of `Cc1ccc(C)c(NC(=S)NCCC(c2ccccc2)c2ccccc2)c1`, the IC50 is reported as > 100 µM (inactive). In the case of `CCn1nc(C)c(CN2CCC(C(=O)Nc3cccc(-c4cccc(F)c4)c3)CC2)c1C`, the IC50 is reported as > 100 µM (inactive). In the case of `COC(=O)c1cc(NC(=S)NCCC(c2ccccc2)c2ccccc2)cc(C(=O)OC)c1`, the IC50 is reported as > 100 µM (inactive). `COc1cc(NC(=S)NCCC(c2ccccc2)c2ccccc2)cc(OC)c1` was tested, and the IC50 was > 100 µM (inactive). In the case of `Fc1ccc(NC(=S)NCCC(c2ccccc2)c2ccccc2)cc1Cl`, the IC50 is reported as > 100 µM (inactive). `COCc1ccc(CN2CCC(C(=O)Nc3cccc(-c4cccc(Cl)c4)c3)CC2)o1` was tested, and the IC50 was > 100 µM (inactive). With `Cc1cccc(NC(=S)NCCC(c2ccccc2)c2ccccc2)c1C` the IC50 was > 100 µM (inactive). For `S=C(NCCC(c1ccccc1)c1ccccc1)Nc1ccc(Cl)c(Cl)c1`, the IC50 was > 100 µM (inactive). For `Cc1cc(NC(=O)CCNS(=O)(=O)c2ccc3[nH]c(=O)oc3c2)ccc1Br`, the IC50 was > 100 µM (inactive). `CCn1cc(CN2CCC(C(=O)Nc3cccc(-c4cccc(OC)c4)c3)CC2)cn1` was tested, and the IC50 was > 100 µM (inactive). `Fc1ccccc1NC(=S)NCCC(c1ccccc1)c1ccccc1` was tested, and the IC50 was > 100 µM (inactive). `Cc1ccc(NC(=O)CCNS(=O)(=O)c2ccc3[nH]c(=O)oc3c2)cc1C` was tested, and the IC50 was > 100 µM (inactive). With `CCOC(=O)c1ccc(NC(=S)NCCC(c2ccccc2)c2ccccc2)cc1` the IC50 was > 100 µM (inactive). In the case of `O=[N+]([O-])c1ccc(NC(=S)NCCC(c2ccccc2)c2ccccc2)cc1`, the IC50 is reported as > 100 µM (inactive). `Cc1nn(C(C)C)c(C)c1CN1CCC(C(=O)Nc2cccc(-c3cccc(F)c3)c2)CC1` was tested, and the IC50 was > 100 µM (inactive). In the case of `COc1ccc(Cl)cc1Nc1nc(-c2ccc(O)c(O)c2)cs1`, the IC50 is reported as > 100 µM (inactive). `COc1cc([N+](=O)[O-])ccc1NC(=S)NCCC(c1ccccc1)c1ccccc1` was tested, and the IC50 was > 100 µM (inactive). With `Cc1cc(C)cc(NC(=S)NCCC(c2ccccc2)c2ccccc2)c1` the IC50 was > 100 µM (inactive). `COc1ccc(C(=O)CSc2n[nH]c(-c3ccccc3)n2)cc1OC` showed an IC50 of 34.4 µM. In the case of `Cc1c(Cl)cccc1NC(=S)NCCC(c1ccccc1)c1ccccc1`, the IC50 is reported as > 100 µM (inactive). In the case of `C=CCn1cc(CN2CCC(C(=O)Nc3cccc(-c4cccc(F)c4)c3)CC2)c(C)n1`, the IC50 is reported as > 100 µM (inactive). With `CCCn1ncc(CN2CCC(C(=O)Nc3cccc(-c4cccc(F)c4)c3)CC2)c1C` the IC50 was > 100 µM (inactive). For `C=CCn1cc(CN2CCC(C(=O)Nc3cccc(-c4cccc(Cl)c4)c3)CC2)c(C)n1`, the IC50 was > 100 µM (inactive). For `Cc1ccc(CN2CCC(C(=O)Nc3cccc(-c4cccc(F)c4)c3)CC2)o1`, the IC50 was > 100 µM (inactive). For `Cc1c(CN2CCC(C(=O)Nc3cccc(-c4cccc(Cl)c4)c3)CC2)cnn1C`, the IC50 was > 100 µM (inactive). With `COc1ccc(Cl)cc1NC(=S)NCCC(c1ccccc1)c1ccccc1` the IC50 was > 100 µM (inactive). For `S=C(NCCC(c1ccccc1)c1ccccc1)Nc1cccc(Cl)c1`, the IC50 was > 100 µM (inactive). `Cn1cc(CN2CCC(C(=O)Nc3cccc(-c4cccc(F)c4)c3)CC2)cn1` was tested, and the IC50 was > 100 µM (inactive). In the case of `Cc1c(Cl)cccc1Nc1nc(-c2ccc(O)c(O)c2)cs1`, the IC50 is reported as > 100 µM (inactive). In the case of `CN(C)S(=O)(=O)c1cccc(NC(=S)NCCC(c2ccccc2)c2ccccc2)c1`, the IC50 is reported as > 100 µM (inactive). In the case of `O=C(Nc1cccc(-c2cccc(F)c2)c1)C1CCN(Cc2ccc(CO)o2)CC1`, the IC50 is reported as > 100 µM (inactive). `S=C(NCCC(c1ccccc1)c1ccccc1)Nc1ccc(Nc2ccccc2)cc1` was tested, and the IC50 was > 100 µM (inactive). For `CCn1cc(CN2CCC(C(=O)Nc3cccc(-c4cccc(OC)c4)c3)CC2)c(C)n1`, the IC50 was > 100 µM (inactive). With `O=C(Nc1cccc(-c2cccc(Cl)c2)c1)C1CCN(Cc2ccc(CO)o2)CC1` the IC50 was > 100 µM (inactive). For `CCn1ncc(CN2CCC(C(=O)Nc3cccc(-c4cccc(F)c4)c3)CC2)c1C`, the IC50 was > 100 µM (inactive). With `CC1(c2ccccc2)CC(C)(C)N(C(=S)Nc2ccccc2)c2ccccc21` (stereo not drawn) the IC50 was > 100 µM (inactive). With `CCn1cc(CN2CCC(C(=O)Nc3cccc(-c4cccc(Cl)c4)c3)CC2)cn1` the IC50 was > 100 µM (inactive). For `CCn1c(SCC(=O)c2ccc(O)c(O)c2)nnc1-c1ccccc1OC`, the IC50 was > 100 µM (inactive). For `O=C(CN1C(=O)/C(=C/c2ccco2)SC1=S)Nc1cccc(C(=O)O)c1`, the IC50 was > 100 µM (inactive). With `COc1cccc(-c2cccc(NC(=O)C3CCN(Cc4ccc(CO)o4)CC3)c2)c1` the IC50 was > 100 µM (inactive). In the case of `Cc1cc(Cl)ccc1NC(=S)NCCC(c1ccccc1)c1ccccc1`, the IC50 is reported as > 100 µM (inactive). In the case of `O=C(Nc1cccc(-c2cccc(Cl)c2)c1)C1CCN(C2CCC2)CC1`, the IC50 is reported as > 100 µM (inactive). `FC(F)(F)c1cccc(NC(=S)NCCC(c2ccccc2)c2ccccc2)c1` was tested, and the IC50 was > 100 µM (inactive). `Cc1nn(C)c(Cl)c1CN1CCC(C(=O)Nc2cccc(-c3cccc(F)c3)c2)CC1` was tested, and the IC50 was > 100 µM (inactive). In the case of `COc1ccc(NC(=S)NCCC(c2ccccc2)c2ccccc2)cc1`, the IC50 is reported as > 100 µM (inactive).

Source: PubChem BioAssay AID493148 (Sanford-Burnham Center for Chemical Genomics, 2011)
